{"source": "patent US20120130699A1", "about": "“Method of molecular design and synthesis of therapeutic and preventive drugs” (priority 2010, published 2012)", "key": {"[1]": {"settings": "rat, in vivo"}, "[2]": {"experiment": "comparative characteristics: ED50 and therapeutic index", "settings": "LD50 in rats / ED50"}, "[3]": {"settings": "human, in vivo; cited from earlier work"}, "[4]": {"tested_on": "cervical cancer", "settings": "treatment of cervical cancer; cited from earlier work"}}}
{"compound": "CC(=O)O[C@@]12CO[C@@H]1C[C@H](O)[C@@]1(C)C(=O)[C@H](O)C3=C(C)[C@@H](OC(=O)[C@H](O)[C@@H](NC(=O)OC(C)(C)C)c4ccccc4)C[C@@](O)([C@@H](OC(=O)c4ccccc4)[C@H]21)C3(C)C", "note": "[Taxotere]", "values": [{"measurement": "Relative Therapeutic Index", "setting": "[1]", "value": 1}, {"measurement": "Therapeutic Index", "setting": "[2]", "value": 3.42}]}
{"compound": "CN1CC[C@]23c4c5ccc(O)c4O[C@H]2[C@@H](O)C=C[C@H]3[C@H]1C5", "note": "[morphine]", "values": [{"measurement": "average effectiveness", "setting": "[3]", "value": 75, "unit": "%"}]}
{"compound": "alpha-interferon", "values": [{"measurement": "average effectiveness", "setting": "[4]", "value": "about 15%"}]}
